Assay results: US7906507B2, “Oxadiazoanthracene compounds for the treatment of diabetes” (TransTech Pharma, Inc., priority 2008, dated 2011)

Biological target: T1, cloned human GLP-1 receptor (Homo sapiens, UniProt P43220)
T1 construct: expressed in transfected cells; host or cells: CHO or HEK-293 cells
Test: Functional cell-based assay: cAMP functional assay
Conditions: for Emax: 0.5 h, percentage relative to maximal GLP-1-induced cAMP accumulation, na = not active in the assay, read-out: % activation
Procedure: Following overnight incubation of cells, media was removed, and compounds (at concentrations ranging from 0.0001 to 100 μM) were added to monolayer cells in Iscove's modified dulbecco's medium (IMDM), 100 μM RO 20-1724 PDE inhibitor, 0.1% BSA, 2% DMSO in a final volume of 100 μL, and incubated for 30 min at 37° C. 95% O2, 5% CO2 in a humidified incubator. cAMP was quantitated using a homogenous time-resolved fluorescence detection system (cAMP dynamic, CIS bio International).

T1 sequence (P43220 24-463): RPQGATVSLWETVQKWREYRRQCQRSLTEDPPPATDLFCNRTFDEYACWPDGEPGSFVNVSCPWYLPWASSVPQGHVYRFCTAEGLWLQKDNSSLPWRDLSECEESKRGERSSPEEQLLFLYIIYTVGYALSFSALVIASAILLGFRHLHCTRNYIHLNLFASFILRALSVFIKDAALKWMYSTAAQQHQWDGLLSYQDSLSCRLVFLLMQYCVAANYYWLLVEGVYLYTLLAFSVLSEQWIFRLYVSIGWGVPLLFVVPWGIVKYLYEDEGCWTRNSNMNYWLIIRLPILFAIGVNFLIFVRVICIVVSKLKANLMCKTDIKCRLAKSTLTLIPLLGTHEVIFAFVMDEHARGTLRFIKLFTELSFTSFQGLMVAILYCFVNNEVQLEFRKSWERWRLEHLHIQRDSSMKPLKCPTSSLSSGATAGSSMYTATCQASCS

Structure (SMILES) | EC50 | Emax
N#Cc1ccc(-c2ccc(C[C@H](NC(=O)[C@@H]3Cc4cc5c(cc4CN3C(=O)OC3CCC(O)CC3)OC(c3ccc(OCc4ccc(Cl)c(Cl)c4)cc3)C(=O)N5)C(=O)O)cc2)cc1 (stereo partly drawn) [Example 1, (S)-7-[(S)-1-Carboxy-2-(4′-cyano-biphenyl-4-yl)-ethylcarbamoyl]-3-[4-(3,4-dichloro-benzyloxy)-phenyl]-2-oxo-1,2,3,5,7,8-hexahydro-4-oxa-1,6-diaza-anthracene-6-carboxylic acid 4-hydroxy-cyclohexyl ester] | 900 nM | 15%
N#Cc1ccc(-c2ccc(C[C@H](NC(=O)[C@@H]3Cc4cc5c(cc4CN3C(=O)OC3CCC(O)C3)OC(c3ccc(OCc4ccc(Cl)c(Cl)c4)cc3)C(=O)N5)C(=O)O)cc2)cc1 (stereo partly drawn) [Example 2, (S)-7-[(S)-1-Carboxy-2-(4′-cyano-biphenyl-4-yl)-ethylcarbamoyl]-3-[4-(3,4-dichloro-benzyloxy)-phenyl]-2-oxo-1,2,3,5,7,8-hexahydro-4-oxa-1,6-diaza-anthracene-6-carboxylic acid 3-hydroxy-cyclopentyl ester] | 670 nM | 7.8%
N#Cc1ccc(-c2ccc(C[C@H](NC(=O)[C@@H]3Cc4cc5c(cc4CN3C(=O)c3cccnc3)OC(c3ccc(OCc4ccc(Cl)c(Cl)c4)cc3)C(=O)N5)C(=O)O)cc2)cc1 (stereo partly drawn) [Example 4, (S)-3-(4′-Cyano-biphenyl-4-yl)-2-{[(S)-3-[4-(3,4-dichloro-benzyloxy)-phenyl]-2-oxo-6-(pyridine-3-carbonyl)-2,3,5,6,7,8-hexahydro-1H-4-oxa-1,6-diaza-anthracene-7-carbonyl]-amino}-propionic acid] | 3800 nM | 20%
N#Cc1ccc(-c2ccc(C[C@H](NC(=O)[C@@H]3Cc4cc5c(cc4CN3C(=O)[C@@H]3CCCO3)OC(c3ccc(OCc4ccc(Cl)c(Cl)c4)cc3)C(=O)N5)C(=O)O)cc2)cc1 (stereo partly drawn) [Example 5, (S)-3-(4′-Cyano-biphenyl-4-yl)-2-{[(S)-3-[4-(3,4-dichloro-benzyloxy)-phenyl]-2-oxo-6-((S)-tetrahydro-furan-2-carbonyl)-2,3,5,6,7,8-hexahydro-1H-4-oxa-1,6-diaza-anthracene-7-carbonyl]-amino}-propionic acid] | 30000 nM | 18%
N#Cc1ccc(-c2ccc(C[C@H](NC(=O)[C@@H]3Cc4cc5c(cc4CN3C(=O)[C@H]3CCCO3)OC(c3ccc(OCc4ccc(Cl)c(Cl)c4)cc3)C(=O)N5)C(=O)O)cc2)cc1 (stereo partly drawn) [Example 6, (S)-3-(4′-Cyano-biphenyl-4-yl)-2-{[(S)-3-[4-(3,4-dichloro-benzyloxy)-phenyl]-2-oxo-6-((R)-tetrahydro-furan-2-carbonyl)-2,3,5,6,7,8-hexahydro-1H-4-oxa-1,6-diaza-anthracene-7-carbonyl]-amino}-propionic acid] | 3600 nM | 7%
N#Cc1ccc(-c2ccc(C[C@H](NC(=O)[C@@H]3Cc4cc5c(cc4CN3C(=O)OC3CCOCC3)OC(c3ccc(OCc4ccc(Cl)c(Cl)c4)cc3)C(=O)N5)C(=O)O)cc2)cc1 (stereo partly drawn) [Example 11, (S)-7-[(S)-1-Carboxy-2-(4′-cyano-biphenyl-4-yl)-ethylcarbamoyl]-3-[4-(3,4-dichloro-benzyloxy)-phenyl]-2-oxo-1,2,3,5,7,8-hexahydro-4-oxa-1,6-diaza-anthracene-6-carboxylic acid tetrahydro-pyran-4-yl ester] | 606 nM | 71%
CC(C)C(=O)N1Cc2cc3c(cc2C[C@H]1C(=O)N[C@@H](Cc1ccc(-c2ccc(C#N)cc2)cc1)C(=O)O)NC(=O)C(c1ccc(OCc2ccc(Cl)c(Cl)c2)cc1)O3 (stereo partly drawn) [Example 13, (S)-3-(4′-Cyano-biphenyl-4-yl)-2-({(S)-3-[4-(3,4-dichloro-benzyloxy)-phenyl]-6-isobutyryl-2-oxo-2,3,5,6,7,8-hexahydro-1H-4-oxa-1,6-diaza-anthracene-7-carbonyl}-amino)-propionic acid] | 1210 nM | 59%
N#Cc1ccc(-c2ccc(C[C@H](NC(=O)[C@@H]3Cc4cc5c(cc4CN3C(=O)C3CCCC3)OC(c3ccc(OCc4ccc(Cl)c(Cl)c4)cc3)C(=O)N5)C(=O)O)cc2)cc1 (stereo partly drawn) [Example 16, (S)-3-(4′-Cyano-biphenyl-4-yl)-2-({(S)-6-cyclopentanecarbonyl-3-[4-(3,4-dichloro-benzyloxy)-phenyl]-2-oxo-2,3,5,6,7,8-hexahydro-1H-4-oxa-1,6-diaza-anthracene-7-carbonyl}-amino)-propionic acid] | 657 nM | 78%
N#Cc1ccc(-c2ccc(C[C@H](NC(=O)[C@@H]3Cc4cc5c(cc4CN3C(=O)N3CCCCC3)OC(c3ccc(OCc4ccc(Cl)c(Cl)c4)cc3)C(=O)N5)C(=O)O)cc2)cc1 (stereo partly drawn) [Example 17, (S)-3-(4′-Cyano-biphenyl-4-yl)-2-{[(S)-3-[4-(3,4-dichloro-benzyloxy)-phenyl]-2-oxo-6-(piperidine-1-carbonyl)-2,3,5,6,7,8-hexahydro-1H-4-oxa-1,6-diaza-anthracene-7-carbonyl]-amino}-propionic acid] | 699 nM | 80%

Now those with a lower EC50, led by results:

EC50 | Emax | Structure (SMILES)
500 nM | 54% | CC(C)COC(=O)N1Cc2cc3c(cc2C[C@H]1C(=O)N[C@@H](Cc1ccc(-c2ccc(C#N)cc2)cc1)C(=O)O)NC(=O)C(c1ccc(OCc2ccc(Cl)c(Cl)c2)cc1)O3 (stereo partly drawn) [Example 9, (S)-7-[(S)-1-Carboxy-2-(4′-cyano-biphenyl-4-yl)-ethylcarbamoyl]-3-[4-(3,4-dichloro-benzyloxy)-phenyl]-2-oxo-1,2,3,5,7,8-hexahydro-4-oxa-1,6-diaza-anthracene-6-carboxylic acid isobutyl ester]
474 nM | 35% | N#Cc1ccc(-c2ccc(C[C@H](NC(=O)[C@@H]3Cc4cc5c(cc4CN3CC#Cc3ccccc3)OC(c3ccc(OCc4ccc(Cl)c(Cl)c4)cc3)C(=O)N5)C(=O)O)cc2)cc1 (stereo partly drawn) [Example 7, (S)-3-(4′-Cyano-biphenyl-4-yl)-2-{[(S)-3-[4-(3,4-dichloro-benzyloxy)-phenyl]-2-oxo-6-(3-phenyl-prop-2-ynyl)-2,3,5,6,7,8-hexahydro-1H-4-oxa-1,6-diaza-anthracene-7-carbonyl]-amino}-propionic acid]
450 nM | 77% | N#Cc1ccc(-c2ccc(C[C@H](NC(=O)[C@@H]3Cc4cc5c(cc4CN3S(=O)(=O)c3ccccc3)OC(c3ccc(OCc4ccc(Cl)c(Cl)c4)cc3)C(=O)N5)C(=O)O)cc2)cc1 (stereo partly drawn) [Example 14, (S)-2-({(S)-6-Benzenesulfonyl-3-[4-(3,4-dichloro-benzyloxy)-phenyl]-2-oxo-2,3,5,6,7,8-hexahydro-1H-4-oxa-1,6-diaza-anthracene-7-carbonyl}-amino)-3-(4′-cyano-biphenyl-4-yl)-propionic acid]
427 nM | 61% | N#Cc1ccc(-c2ccc(C[C@H](NC(=O)[C@@H]3Cc4cc5c(cc4CN3C(=O)C3CCC3)OC(c3ccc(OCc4ccc(Cl)c(Cl)c4)cc3)C(=O)N5)C(=O)O)cc2)cc1 (stereo partly drawn) [Example 12, (S)-3-(4′-Cyano-biphenyl-4-yl)-2-({(S)-6-cyclobutanecarbonyl-3-[4-(3,4-dichloro-benzyloxy)-phenyl]-2-oxo-2,3,5,6,7,8-hexahydro-1H-4-oxa-1,6-diaza-anthracene-7-carbonyl}-amino)-propionic acid]
418 nM | 51% | CC(C)(C)COC(=O)N1Cc2cc3c(cc2C[C@H]1C(=O)N[C@@H](Cc1ccc(-c2ccc(C#N)cc2)cc1)C(=O)O)NC(=O)C(c1ccc(OCc2ccc(Cl)c(Cl)c2)cc1)O3 (stereo partly drawn) [Example 10, (S)-7-[(S)-1-Carboxy-2-(4′-cyano-biphenyl-4-yl)-ethylcarbamoyl]-3-[4-(3,4-dichloro-benzyloxy)-phenyl]-2-oxo-1,2,3,5,7,8-hexahydro-4-oxa-1,6-diaza-anthracene-6-carboxylic acid 2,2-dimethyl-propyl ester]
270 nM | 74.7% | N#Cc1ccc(-c2ccc(C[C@H](NC(=O)[C@@H]3Cc4cc5c(cc4CN3C(=O)OCC3CC3)OC(c3ccc(OCc4ccc(Cl)c(Cl)c4)cc3)C(=O)N5)C(=O)O)cc2)cc1 (stereo partly drawn) [Example 18, (S)-7-[(S)-1-Carboxy-2-(4′-cyano-biphenyl-4-yl)-ethylcarbamoyl]-3-[4-(3,4-dichloro-benzyloxy)-phenyl]-2-oxo-1,2,3,5,7,8-hexahydro-4-oxa-1,6-diaza-anthracene-6-carboxylic acid cyclopropylmethyl ester]
134 nM | 64% | CC(C)OC(=O)N1Cc2cc3c(cc2C[C@H]1C(=O)N[C@@H](Cc1ccc(-c2ccc(C#N)cc2)cc1)C(=O)O)NC(=O)C(c1ccc(OCc2ccc(Cl)c(Cl)c2)cc1)O3 (stereo partly drawn) [Example 8, (S)-7-[(S)-1-Carboxy-2-(4′-cyano-biphenyl-4-yl)-ethylcarbamoyl]-3-[4-(3,4-dichloro-benzyloxy)-phenyl]-2-oxo-1,2,3,5,7,8-hexahydro-4-oxa-1,6-diaza-anthracene-6-carboxylic acid isopropyl ester]
70 nM | 25% | CC(=O)Nc1nc(C)c(S(=O)(=O)N2Cc3cc4c(cc3C[C@H]2C(=O)N[C@@H](Cc2ccc(-c3ccc(C#N)cc3)cc2)C(=O)O)NC(=O)C(c2ccc(OCc3ccc(Cl)c(Cl)c3)cc2)O4)s1 (single isomer, unassigned) [Example 81]
38.2 nM | 38% | CC[C@@H](c1ccccc1)N1Cc2cc3c(cc2C[C@H]1C(=O)N[C@@](C)(Cc1ccc(-c2ccc(C#N)cc2)cc1)C(=O)O)N(C)C(=O)C(c1ccc(OCc2ccc(Cl)c(Cl)c2)cc1)O3 (stereo in doubt) [Example 97, (S)-3-(4′-Cyano-biphenyl-4-yl)-2-{[(S)-3-[4-(3,4-dichloro-benzyloxy)-phenyl]-1-methyl-2-oxo-6-((S)-1-phenyl-propyl)-2,3,5,6,7,8-hexahydro-1H-4-oxa-1,6-diaza-anthracene-7-carbonyl]-amino}-2-methyl-propionic acid]
